Measured values published in ChEMBL document CHEMBL1153672, “Synthesis and biological activity of a novel class of cephalosporins with a oxadiazolyl hydroxypyridone moiety at C-7” (1995).
Values after ≈ are worked out from the molar mass of the structure shown.

Tests used:
Assay type in all cases: functional
Mus musculus [1] = assay: Tested in vivo for the therapeutic efficacy against systemic infection caused by Staphylococcus aureus Smith in mice at a challenge dose of 3.3*10e6 (cfu/mouse) + 5%mucin
Escherichia coli = assay: In vitro antibacterial activity against Escherichia coli ML4707
Pseudomonas aeruginosa [2] = assay: In vitro antibacterial activity against Pseudomonas aeruginosa E-2
Pseudomonas aeruginosa [3] = assay: In vitro antibacterial activity against Pseudomonas aeruginosa IFO12689
Staphylococcus aureus = assay: In vitro antibacterial activity against Staphylococcus aureus Smith
Mus musculus [4] = species on record: Mus musculus; assay: Tested for the therapeutic efficacy against systemic infection caused by Pseudomonas aeruginosa E-2 in mice at a challenge dose of 7.9*10e4 (cfu/mouse) + 5%mucin
Pseudomonas aeruginosa [5] = assay: In vitro for the antibacterial activity against Pseudomonas aeruginosa E-2
Mus musculus [6] = assay: Tested in vivo for the therapeutic efficacy against systemic infection caused by Pseudomonas aeruginosa E-2 in mice at a challenge dose of 8*10e4 (cfu/mouse) + 5%mucin
Mus musculus [7] = assay: Tested in vivo for the therapeutic efficacy against systemic infection caused by Staphylococcus aureus Smith in mice at a challenge dose of 5*10e6 (cfu/mouse) + 5%mucin

| Compound | ED50 (Mus musculus [1]) [mg/kg] | MIC (Escherichia coli) [µg/mL] | MIC (Pseudomonas aeruginosa [2]) [µg/mL] | MIC (Pseudomonas aeruginosa [3]) [µg/mL] | MIC (Staphylococcus aureus) [µg/mL] | ED50 (Mus musculus [4]) [mg/kg] | MIC (Pseudomonas aeruginosa [5]) [µg/mL] | ED50 (Mus musculus [6]) [mg/kg] | ED50 (Mus musculus [7]) [mg/kg] |
| --- | --- | --- | --- | --- | --- | --- | --- | --- | --- |
| CO/N=C(\C(=O)N[C@@H]1C(=O)N2C(C(=O)[O-])=C(C[n+]3cccc4c3CCC4)CS[C@H]12)c1csc(N)n1 [CEFPIROME] | 1.5 | – | – | – | – | – | – | – | – |
| Nc1nc(/C(=N/OCCSc2nnc(-c3cc(O)c(O)cn3)o2)C(=O)[N-][C@@H]2C(=O)N3C(C(=O)[O-])=C(C[n+]4ccc(SCCO)cc4)CS[C@H]23)cs1.[Na+] | – | 0.0125 | 0.78 | 0.78 | 3.13 | – | – | – | – |
| Nc1nc(/C(=N/OCCSc2nnc(-c3ccccn3)o2)C(=O)[N-][C@@H]2C(=O)N3C(C(=O)[O-])=C(CSc4cc[n+](CCO)cc4)CS[C@H]23)cs1.[Na+] | 0.43 | – | – | – | 0.39 | > 40 | 100 | – | – |
| CC(C)(O/N=C(\C(=O)N[C@@H]1C(=O)N2C(C(=O)[O-])=C(C[n+]3ccccc3)CS[C@H]12)c1csc(N)n1)C(=O)O [CEFTAZIDIME] | – | 0.05 (≈ 0.0915 µM) | 1.56 (≈ 2.85 µM) | 3.13 (≈ 5.73 µM) | 3.13 (≈ 5.73 µM) | > 100 | – | 55 | 8.1 |
| Nc1nc(/C(=N/OCc2cc(O)c(O)cn2)C(=O)[N-][C@@H]2C(=O)N3C(C(=O)[O-])=C(CSc4cc[n+](CCO)cc4)CS[C@H]23)cs1.[Na+] | 0.86 | – | – | – | 3.13 | > 40 | 6.25 | – | – |
| Nc1nc(/C(=N/OCCSc2nnc(-c3cc(O)c(O)cn3)o2)C(=O)N[C@@H]2C(=O)N3C(C(=O)[O-])=C(CSc4nc5ccccc5s4)CS[C@H]23)cs1.[Na+] | – | 0.0125 | 0.78 | 0.78 | 3.13 | – | – | > 100 | – |
| Cc1cc(SCC2=C(C(=O)[O-])N3C(=O)[C@@H](NC(=O)/C(=N\OCCSc4nnc(-c5cc(O)c(O)cn5)o4)c4csc(N)n4)[C@H]3SC2)n2nc(CO)nc2n1.[Na+] | – | < 0.0063 | 0.2 | 0.39 | 6.25 | – | – | – | – |
| Nc1nc(/C(=N/OCCSc2nnc(-c3cc(O)c(O)cn3)o2)C(=O)[N-][C@@H]2C(=O)N3C(C(=O)[O-])=C(CSc4cc[n+](CCO)cc4)CS[C@H]23)cs1.[Na+] | 0.86 | ≤ 0.0063 | 0.39 | 0.78 | 3.13 | 7.2 | – | 4.2 | < 0.3 |
| CN(C)CC[n+]1ccc(SCC2=C(C(=O)[O-])N3C(=O)[C@@H]([N-]C(=O)/C(=N\OCCSc4nnc(-c5cc(O)c(O)cn5)o4)c4csc(N)n4)[C@H]3SC2)cc1.[Na+] | – | 0.025 | 0.78 | 3.13 | 6.25 | – | – | – | – |
| Nc1nc(/C(=N/OCCSc2nnc(-c3ccc(O)c(O)c3)o2)C(=O)[N-][C@@H]2C(=O)N3C(C(=O)[O-])=C(CSc4cc[n+](CCO)cc4)CS[C@H]23)cs1.[Na+] | 0.86 | – | – | – | 0.39 | 34 | 0.39 | – | – |
| Nc1nc(/C(=N/OCCSc2nnc(-c3cc(O)c(O)cn3)o2)C(=O)N[C@@H]2C(=O)N3C(C(=O)[O-])=C(CSc4cc[n+](CC(=O)[O-])cc4)CS[C@H]23)cs1.[Na+] | – | ≤ 0.0063 | 1.56 | 0.39 | 12.5 | – | – | 25 | – |
| Nc1nc(/C(=N/OCCSc2nnc(-c3cc(O)c(O)cn3)o2)C(=O)N[C@@H]2C(=O)N3C(C(=O)[O-])=C(CSc4nnc(-c5ccncc5)o4)CS[C@H]23)cs1.[Na+] | – | ≤ 0.0063 | 0.78 | 0.39 | 6.25 | – | – | – | – |
| Nc1nc(/C(=N/OCCSc2nnc(-c3cc(O)c(O)cn3)o2)C(=O)N[C@@H]2C(=O)N3C(C(=O)[O-])=C(CSc4ccccn4)CS[C@H]23)cs1.[Na+] | – | ≤ 0.0063 | 0.39 | 0.039 | 6.25 | – | – | – | – |
| Nc1nc(/C(=N/OCCSc2nnc(-c3cc(O)c(O)cn3)o2)C(=O)[N-][C@@H]2C(=O)N3C(C(=O)[O-])=C(C[n+]4ccccc4)CS[C@H]23)cs1.[Na+] | – | 0.025 | 3.13 | 0.78 | 3.13 | – | – | – | – |
| Nc1nc(/C(=N/OCCSc2nnc(-c3cc(O)c(O)cn3)o2)C(=O)N[C@@H]2C(=O)N3C(C(=O)[O-])=C(CSc4nnc(N)s4)CS[C@H]23)cs1.[Na+] | – | ≤ 0.0063 | 0.2 | 0.2 | 6.25 | – | – | 35 | > 20 |
| NC(=O)c1cc[n+](CC2=C(C(=O)[O-])N3C(=O)[C@@H]([N-]C(=O)/C(=N\OCCSc4nnc(-c5cc(O)c(O)cn5)o4)c4csc(N)n4)[C@H]3SC2)cc1.[Na+] | – | 0.025 | 3.13 | 1.56 | 6.25 | – | – | – | – |
| CC[n+]1ccc(SCC2=C(C(=O)[O-])N3C(=O)[C@@H]([N-]C(=O)/C(=N\OCCSc4nnc(-c5cc(O)c(O)cn5)o4)c4csc(N)n4)[C@H]3SC2)cc1.[Na+] | – | ≤ 0.0063 | 0.39 | 0.78 | 3.13 | – | – | 19 | < 0.6 |
| Nc1nc(/C(=N/OCCSc2nnc(-c3cc(O)c(O)cn3)o2)C(=O)N[C@@H]2C(=O)N3C(C(=O)[O-])=C(CSc4cnns4)CS[C@H]23)cs1.[Na+] | – | ≤ 0.0063 | 0.78 | 0.2 | 3.13 | – | – | – | – |
| Nc1nc(/C(=N/OCCSc2nnc(-c3cc(O)c(O)cn3)o2)C(=O)N[C@@H]2C(=O)N3C(C(=O)[O-])=C(C[n+]4ccc(C(=O)[O-])cc4)CS[C@H]23)cs1.[Na+] | – | 0.0125 | 3.13 | 0.39 | 25 | – | – | – | – |
| CO/N=C(\C(=O)N[C@@H]1C(=O)N2C(C(=O)O)=C(COC(C)=O)CS[C@H]12)c1csc(N)n1 [CEFOTAXIME] | 3 | 0.0125 (≈ 0.0274 µM) | 25 (≈ 54.9 µM) | 25 (≈ 54.9 µM) | 1.56 (≈ 3.43 µM) | – | – | – | 4.6 |
